According to patent publication US6218379A, “Tricyclic carbacephems” (Hoffmann-la Roche Inc., priority 1996, dated 2001):
Values after ≈ are worked out from the molar mass of the structure shown. Where a name gives a salt, the structure may show the parent alone.

Key:
[1] = tested on: Citrobacter freundii 1982; assay: Antibacterial activity in vitro (MIC) against Citrobacter freundii 1982; assay type: cell-based; details: read-out: MIC C. freundii 1982
Experimental: (§1) The minimum inhibitory concentration in vitro (MIC in μg/ml) of a compound of formula I against Citrobacter freundii 1982 and Staphylococcus aureus 887 is measured and compiled in Table 2.

[2] = tested on: Staphylococcus aureus 887; assay: Antibacterial activity in vitro (MIC) against Staphylococcus aureus 887; assay type: cell-based; details: read-out: MIC S. aureus 887
Experimental: as §1

SMILES	MIC [1] [µg/mL]	MIC [2] [µg/mL]
CC(=O)N1C[C@H]2CC(/C=C/c3ccc4ccccc4n3)=C(C(=O)O)N3C(=O)[C@@H]1[C@@H]23 [Example 61, (E)-(1aS,3aR,6bR)-2-Acetyl-1-oxo-5-(2-quinolin-2-yl-vinyl)-1a,2,3,3a,4,6b-hexahydro-1H-2,6a-diaza-cyclobut[cd]indene-6-carboxylic acid sodium salt (1:1)]	64	64
CC(=O)N1C[C@H]2CC(/C=C/c3cc4ccccc4[n+](CC(N)=O)c3)=C(C(=O)[O-])N3C(=O)[C@@H]1[C@@H]23 [Example 68, (E)-(1aS,3aR,6bR)-2-Acetyl-5-[2-(1-carbamoylmethyl-quinolin-1-ium-3-yl)-vinyl]-1-oxo-1a,2,3,3a,4,6b-hexahydro-1H-2,6a-diaza-cyclobut[cd]indene-6-carboxylate]	16 (≈ 35.8 µM)	0.5 (≈ 1.12 µM)
O=CN1C[C@H]2CC(/C=C/c3ccccn3)=C(C(=O)O)N3C(=O)[C@@H]1[C@@H]23 [Example 56, (E)-(1aS,3aR,6bR)-2-Formyl-1-oxo-5-(2-pyridin-2-yl-vinyl)-1a,2,3,3a,4,6b-hexahydro-1H-2,6a-diaza-cyclobut[cd]indene-6-carboxylic acid sodium salt (1:1)]	4	1
O=C(O)C1=C(/C=C/c2cccnc2)C[C@@H]2CN[C@@H]3C(=O)N1[C@H]23 [Example 53, (E)-(1aS,3aR,6bR)-1-Oxo-5-(2-pyridin-3-yl-vinyl)-1a,2,3,3a,4,6b-hexahydro-1H-2,6a-diaza-cyclobut[cd]indene-6-carboxylic acid trifluoroacetate (1:1.5)]	64	2
NC(=O)c1ccc(NC(=O)N2C[C@H]3CC(/C=C4\CCN(CC(F)(F)F)C4=O)=C(C(=O)O)N4C(=O)[C@@H]2[C@@H]34)cc1 [Example 23, (E)-(1aS,3aR,6bR)-2-(4-Carbamoyl-phenylcarbamoyl)-1-oxo-5-[2-oxo-1-(2,2,2-trifluoroethyl)-pyrrolidin-3-ylidenemethyl]-1a,2,3,3a,4,6b-hexahydro-1H-2,6a-diaza-cyclobut[cd]indene-6-carboxylic acid sodium salt (1:1)]	16	16
CC(=O)N1C[C@H]2CC(/C=C3\CCN(c4ccccc4)C3=O)=C(C(=O)O)N3C(=O)[C@@H]1[C@@H]23 [Example 31, (E)-(1aS,3aR,6bR)-2-Acetyl-1-oxo-5-[2-oxo-1-phenyl-pyrrolidin-3-ylidenemethyl]-1a,2,3,3a,4,6b-hexahydro-1H-2,6a-diaza-cyclobut[cd]indene-6-carboxylic acid sodium salt (1:1)]	8	2
O=C(O)C1=C(/C=C2\CCN(C3CC3)C2=O)C[C@@H]2CN(C(=O)C(F)(F)F)[C@@H]3C(=O)N1[C@H]23 [Example 36, (E)-(1aS,3aR,6bR)-1-Oxo-5-[2-oxo-1-cyclopropyl-pyrrolidin-3-ylidenemethyl]-2-trifluoroacetyl-1a,2,3,3a,4,6b-hexahydro-1H-2,6a-diaza-cyclobut[cd]indene-6-carboxylic acid sodium salt (1:1)]	8	4
O=C(O)C1=C(/C=C/c2ccc(O)cc2)C[C@@H]2CN[C@@H]3C(=O)N1[C@H]23 [Example 52, (E)-(1aS,3aR,6bR)-1-Oxo-5-[2-(4-hydroxy-phenyl)-vinyl]-1a,2,3,3a,4,6b-hexahydro-1H-2,6a-diaza-cyclobut[cd]indene-6-carboxylic acid trifluoroacetate (1:0.83)]	64	4
CC(=O)N1C[C@H]2CC(/C=C3\CCN(CC(C)C)C3=O)=C(C(=O)O)N3C(=O)[C@@H]1[C@@H]23 [Example 28, (E)-(1aS,3aR,6bR)-2-Acetyl-1-oxo-5-[2-oxo-1-isobutyl-pyrrolidin-3-ylidenemethyl]-1a,2,3,3a,4,6b-hexahydro-1H-2,6a-diaza-cyclobut[cd]indene-6-carboxylic acid sodium salt (1:1)]	2	8
O=C(O)C1=C(/C=C/c2ccncc2)C[C@@H]2CN[C@@H]3C(=O)N1[C@H]23 [Example 51, (E)-(1aS,3aR,6bR)-1-Oxo-5-(2-pyridin-4-yl-vinyl)-1a,2,3,3a,4,6b-hexahydro-1H-2,6a-diaza-cyclobut[cd]indene-6-carboxylic acid trifluoroacetate (1:1.45)]	64	4
O=C(O)C1=C(/C=C2\CCN(CC(F)(F)F)C2=O)C[C@@H]2CN[C@@H]3C(=O)N1[C@H]23 [Example 14, (E)-(1aS,3aR,6bR)-1-Oxo-5-[2-oxo-1-(2,2,2-trifluoro-ethyl)-pyrrolidin-3-ylidenemethyl]-1a,2,3,3a,4,6b-hexahydro-1H-2,6a-diaza-cyclobut[cd]indene-6-carboxylic acid trifluoroacetate (1:1)]	8	16
O=C(O)C1=C(/C=C2\CCN(c3cccnc3)C2=O)C[C@@H]2CN(C(=O)C(F)(F)F)[C@@H]3C(=O)N1[C@H]23 [Example 38, (E)-(1aS,3aR,6bR)-1-Oxo-5-[2-oxo-1-pyridin-3-yl-pyrrolidin-3-ylidenemethyl]-2-trifluoroacetyl-1a,2,3,3a,4,6b-hexahydro-1H-2,6a-diaza-cyclobut[cd]indene-6-carboxylic acid sodium salt (1:1)]	16	4
